Like-named read-outs stand apart in the source and are kept apart here.
Key:
Type in all cases: cell-based
HBsAg = experiment: PHH HBV natural infection assay, HBsAg (alphalisa)
In short: (§1)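 Primary human hepatocytes infected with HBV at 200 GE/cell plus 4% PEG8000 for 24 h, then sandwich-cultured 72 h. Compounds were added in two refreshes 72 h apart. HBsAg and HBeAg in supernatant measured by AlphaLISA.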

[1] = system: primary human hepatocyte (PHH); experiment: PHH natural infection assay, cytotoxicity (Cell Counting Kit-8); settings: HBV-infected primary human hepatocytes, CCK8, end of treatment
In short: (§2)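 HBV-infected at 200 GE/cell with 4% PEG8000 for 24 h, then sandwich-cultured 72 h in 1% DMSO and 0.25 mg/mL matrix gel. Compound added twice at 72-h intervals; supernatant HBsAg and HBeAg read by AlphaLISA, HBV DNA by quantitative fluorescence PCR kit. Cytotoxicity by CCK-8.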

HBeAg = experiment: PHH HBV natural infection assay, HBeAg (alphalisa)
In short: as §1

[2] = PHH natural infection assay, cytotoxicity (Cell Counting Kit-8); settings: human, HBV-infected primary human hepatocytes, CCK8, end of treatment
In short: as §2

[3] = read-out: HBsAg IC50, HBV-infected primary human hepatocytes, supernatant, compound medium refreshed two times with 72-hour interval
[4] = read-out: HbeAg IC50, HBV-infected primary human hepatocytes, supernatant, compound medium refreshed two times with 72-hour interval
[5] = Hepatitis B virus, Hepatocyte, 72 h, read-out: HBsAg IC50, HBV-infected primary human hepatocytes, supernatant, compound medium refreshed two times with 72-hour interval
[6] = Hepatitis B virus, Hepatocyte, 72 h, read-out: HbeAg IC50, HBV-infected primary human hepatocytes, supernatant, compound medium refreshed two times with 72-hour interval

Compound | IC50 (HBsAg; [3]) [nM] | CC50 [1] [µM] | IC50 (HBeAg; [4]) [nM] | IC50 (HBsAg; [5]) [nM] | CC50 at 144 h [2] [µM] | IC50 (HBeAg; [6]) [nM]
O=C(NC1CC2(C1)CC(c1nc3cc(Cl)ccc3o1)C2)c1ccc([S+]([O-])CC2CC2)o1 (single isomer, unassigned) [Example 19-b, N-[6-(5-chloro-1,3-benzoxazol-2-yl)spiro[3.3]heptan-2-yl]-5-(cyclopropylmethylsulfinyl)furan-2-carboxamide] | 71 | > 10 | 53 |  |  | 
O=C(NC1CC2(C1)CC(c1nc3cc(Cl)ccc3o1)C2)c1ccc([S+]([O-])CC2CC2)o1 (single isomer, unassigned) [Example 19-c, N-[6-(5-chloro-1,3-benzoxazol-2-yl)spiro[3.3]heptan-2-yl]-5-(cyclopropylmethylsulfinyl)furan-2-carboxamide] | 2420 | > 10 | 1950 |  |  | 
O=C(NC1CC2(C1)CC(c1nc3cc(Cl)ccc3o1)C2)c1ccc([S+]([O-])CC2CC2)o1 (single isomer, unassigned) [Example 19-d, N-[6-(5-chloro-1,3-benzoxazol-2-yl)spiro[3.3]heptan-2-yl]-5-(cyclopropylmethylsulfinyl)furan-2-carboxamide] | 2860 | > 10 | 2500 |  |  | 
NS(=O)(=O)c1ccc(C(=O)NC2CC3(C2)CC(c2nc4cc(Cl)ccc4o2)C3)o1 (single isomer, unassigned) [Example 29-b, N-[6-(5-chloro-1,3-benzoxazol-2-yl)spiro[3.3]heptan-2-yl]-5-sulfamoyl-furan-2-carboxamide] | 1550 | > 100 | 909 |  |  | 
O=C(NC1CC2(C1)CC(c1nc3cc(Cl)cnc3o1)C2)c1ccc(S(=O)(=O)C2CC2)o1 (single isomer, unassigned) [Example 49-b, N-[6-(6-chlorooxazolo[5,4-b]pyridin-2-yl)spiro[3.3]heptan-2-yl]-5-cyclopropylsulfonyl-furan-2-carboxamide] | 647 | 91.5 | 626 |  |  | 
CS(=N)(=O)c1ccc(C(=O)NC2CC3(C2)CC(c2nc4cc(Cl)ccc4o2)C3)o1 (single isomer, unassigned) [Example 52-b, N-[6-(5-chloro-1,3-benzoxazol-2-yl)spiro[3.3]heptan-2-yl]-5-(methylsulfonimidoyl)furan-2-carboxamide] | 939 | > 100 | 898 |  |  | 
N=S(=O)(c1ccc(C(=O)NC2CC3(C2)CC(c2nc4cc(Cl)cnc4o2)C3)o1)C1CC1 (single isomer, unassigned) [Example 64-d, N-[6-(6-chlorooxazolo[5,4-b]pyridin-2-yl)spiro[3.3]heptan-2-yl]-5-(cyclopropylsulfonimidoyl)furan-2-carboxamide] |  | > 10 |  |  |  | 
CS(=N)(=O)c1ccc(C(=O)NC2CC3(C2)CC(c2nc4cc(Cl)cnc4o2)C3)o1 (stereo not shown) [Example 63, N-[6-(6-chlorooxazolo[5,4-b]pyridin-2-yl)spiro[3.3]heptan-2-yl]-5-(methylsulfonimidoyl)furan-2-carboxamide] |  |  |  | 6690 | > 100 | 4940
N=S(=O)(c1ccc(C(=O)NC2CC3(C2)CC(c2nc4cc(Cl)cnc4o2)C3)o1)C1CC1 (stereo not shown) [Example 64, N-[6-(6-chlorooxazolo[5,4-b]pyridin-2-yl)spiro[3.3]heptan-2-yl]-5-(cyclopropylsulfonimidoyl)furan-2-carboxamide] |  |  |  | 2930 | > 100 | 2330
N=S(=O)(c1ccc(C(=O)NC2CC3(C2)CC(c2nc4cnc(Cl)cc4o2)C3)o1)C1CC1 (stereo not shown) [Example 65, N-[6-(6-chlorooxazolo[4,5-c]pyridin-2-yl)spiro[3.3]heptan-2-yl]-5-(cyclopropylsulfonimidoyl)furan-2-carboxamide] |  |  |  | 6380 | > 100 | 5830
N=S(=O)(c1ccc(C(=O)NC2CC3(C2)CC(c2nc4cc(Cl)ccc4o2)C3)o1)N1CCCC1 (stereo not shown) [Example 66, N-[6-(5-chloro-1,3-benzoxazol-2-yl)spiro[3.3]heptan-2-yl]-5-(pyrrolidin-1-ylsulfonimidoyl)furan-2-carboxamide] |  |  |  | 8180 | > 10 | 3810
N=S(=O)(c1ccc(C(=O)NC2CC3(C2)CC(c2nc4cc(Cl)ccc4o2)C3)o1)N1CCOCC1 (stereo not shown) [Example 67, N-[6-(5-chloro-1,3-benzoxazol-2-yl)spiro[3.3]heptan-2-yl]-5-(morpholinosulfonimidoyl)furan-2-carboxamide] |  |  |  | 6240 | > 10 | 3650
CCCC(=O)NS(=O)(=O)c1ccc(C(=O)N[C@H]2CC3(C2)C[C@H](c2nc4cc(Cl)ccc4o2)C3)o1 (stereo partly shown) [Example 69] |  |  |  | 329 | > 100 | 223
O=C(N[C@H]1CC2(C1)C[C@H](c1nc3cc(Cl)ccc3o1)C2)c1ccc(S(=O)(=O)NC(=O)C2CCOC2)o1 (stereo partly shown) [Example 77, (Sa)—N-[6-(5-chloro-1,3-benzoxazol-2-yl)spiro[3.3]heptan-2-yl]-5-(tetrahydrofuran-3-carbonylsulfamoyl)furan-2-carboxamide, or (Ra)—N-[6-(5-chloro-1,3-benzoxazol-2-yl)spiro[3.3]heptan-2-yl]-5-(tetrahydrofuran-3-carbonylsulfamoyl)furan-2-carboxamide] |  |  |  | 1160 | > 100 | 563
CC(=O)NS(=O)(=O)c1ccc(C(=O)NC2CC3(C2)CC(c2nc4cc(Cl)ccc4o2)C3)o1 (stereo not shown) [Example 80, 5-(acetylsulfamoyl)-N-[6-(5-chloro-1,3-benzoxazol-2-yl)spiro[3.3]heptan-2-yl]furan-2-carboxamide] |  |  |  | 2770 | > 100 | 1800
O=C(NC1CC2(C1)CC(c1nc3cc(Cl)ccc3o1)C2)c1ccc(S(=O)(=O)NC(=O)C2CCCC2)o1 (stereo not shown) [Example 81, N-[6-(5-chloro-1,3-benzoxazol-2-yl)spiro[3.3]heptan-2-yl]-5-(cyclopentanecarbonylsulfamoyl)furan-2-carboxamide] |  |  |  | 1740 | 11.3 | 796
O=C(NC1CC2(C1)CC(c1nc3cc(Cl)ccc3o1)C2)c1ccc(S(=O)(=O)NC(=O)C2CCCCC2)o1 (stereo not shown) [Example 82, N-[6-(5-chloro-1,3-benzoxazol-2-yl)spiro[3.3]heptan-2-yl]-5-(cyclohexanecarbonylsulfamoyl)furan-2-carboxamide] |  |  |  | 461 | 85.7 | 224
O=C(NC1CC2(C1)CC(c1nc3cc(Cl)ccc3o1)C2)c1ccc(S(=O)(=O)NC(=O)C2CS(=O)(=O)C2)o1 (stereo not shown) [Example 83, N-[6-(5-chloro-1,3-benzoxazol-2-yl)spiro[3.3]heptan-2-yl]-5-[(1,1-dioxothietane-3-carbonyl)sulfamoyl]furan-2-carboxamide] |  |  |  | 3300 | > 10 | 1960
O=C(NC1CC2(C1)CC(c1nc3cc(Cl)ccc3o1)C2)c1ccc(S(=O)(=O)NC(=O)C2CCS(=O)(=O)C2)o1 (stereo not shown) [Example 84, N-[6-(5-chloro-1,3-benzoxazol-2-yl)spiro[3.3]heptan-2-yl]-5-[(1,1-dioxothiolane-3-carbonyl)sulfamoyl]furan-2-carboxamide] |  |  |  | 9000 | > 10 | 6320
O=C(NC1CC2(C1)CC(c1nc3cc(Cl)ccc3o1)C2)c1ccc(S(=O)(=O)NC(=O)C2CCCS(=O)(=O)C2)o1 (stereo not shown) [Example 85, N-[6-(5-chloro-1,3-benzoxazol-2-yl)spiro[3.3]heptan-2-yl]-5-[(1,1-dioxothiane-3-carbonyl)sulfamoyl]furan-2-carboxamide] |  |  |  | 2520 | > 10 | 1660
O=C(NC1CC2(C1)CC(c1nc3cc(Cl)ccc3o1)C2)c1ccc(S(=O)(=O)NC(=O)C2COC2)o1 (stereo not shown) [Example 86, N-[6-(5-chloro-1,3-benzoxazol-2-yl)spiro[3.3]heptan-2-yl]-5-(oxetane-3-carbonylsulfamoyl)furan-2-carboxamide] |  |  |  | 2990 | > 10 | 2190
O=C(NC1CC2(C1)CC(c1nc3cc(Cl)ccc3o1)C2)c1ccc(S(=O)(=O)NC(=O)C2CCOCC2)o1 (stereo not shown) [Example 87, N-[[5-[[6-(5-chloro-1,3-benzoxazol-2-yl)spiro[3.3]heptan-2-yl]carbamoyl]-2-furyl]sulfonyl]tetrahydropyran-4-carboxamide] |  |  |  | 1300 | > 10 | 981
CNS(=O)(=O)c1ccc(C(=O)NC2CC3(C2)CC(c2nc4cc(Cl)ccc4o2)C3)o1 (stereo not shown) [Example 88, N-[6-(5-chloro-1,3-benzoxazol-2-yl)spiro[3.3]heptan-2-yl]-5-(methylsulfamoyl)furan-2-carboxamide] |  |  |  | 1000 | > 10 | 687
CN(C)S(=O)(=O)c1ccc(C(=O)NC2CC3(C2)CC(c2nc4cc(Cl)ccc4o2)C3)o1 (stereo not shown) [Example 89, N-[6-(5-chloro-1,3-benzoxazol-2-yl)spiro[3.3]heptan-2-yl]-5-(dimethylsulfamoyl)furan-2-carboxamide] |  |  |  | 1040 | > 10 | 723
